Measured values as given in US20040044264A1, “Use of ionic liquids to separate olefins, diolefins and aromatics” (NOVA Chemicals (International) S.A., priority 2002, published 2004).
Where two headings read alike, the source gives them in different places. Marks after values point to notes of the source that are not given here. Each block holds one molecule with its values, some of them ahead of it.

Assay: Hydrocarbon solubility in ionic liquid (volume change of hydrocarbon phase in graduated flask)
Protocol: The testing apparatus consisted of a flat-bottomed florence flask with a graduated neck. The flask was charged with 75 mL of bmim^+BF4^−, the level being recorded. A known quantity of C5 hydrocarbon was then added to the flask and the flask was sealed. The overall liquid level and the location of the liquid-liquid interfacial meniscus were recorded. The mixture was then agitated to contact the two liquids and the two phases were allowed to separate. The locations of all meniscuses were then recorded. Agitation and phase separation was then repeated until the liquid levels remained unchanged. The volume change of the hydrocarbon phase corresponds to the quantity of hydrocarbon dissolved in the ionic liquid. The testing was conducted at ambient temperature.
The procedure described in Example 1 was performed instead with ethylcyclohexane, ethylbenzene, and styrene. The ionic liquid used was 1-butyl-3-methylimidazolium tetrafluoroborate.

[1] = in bmim+ BF4- ionic liquid containing 1.69 M AgBF4
[2] = in bmim+ BF4- ionic liquid containing 1.69 M AgBF4, ambient temperature

- Solubility (mol C8/L ionic liquid) [1]: 7.55 mol C8/L ionic liquid
- Solubility (mol C8/mol Ag+) [1]: 4.47 mol C8/mol Ag+
SMILES: CCc1ccccc1 [Ethylbenzene]

- Solubility (mol C5/L ionic liquid): 0.044 mol C5/L ionic liquid
- Solubility (mol C5/mol Ag+): 0.026 mol C5/mol Ag+
SMILES: CCC(C)C [Isopentane]

The remaining lines, values behind:

SMILES: C=Cc1ccccc1 [Styrene]
- Solubility (mol C8/L ionic liquid) [1]: > 7.01* mol C8/L ionic liquid
- Solubility (mol C8/mol Ag+) [1]: 4.15* mol C8/mol Ag+

SMILES: CCC1CCCCC1 [Ethylcyclohexane]
- Solubility (mol C8/L ionic liquid): 0.10 mol C8/L ionic liquid
- Solubility (mol C8/mol Ag+): 0.06 mol C8/mol Ag+

SMILES: C=CC(=C)C [Isoprene]
- Solubility (mol C5/L ionic liquid) [2]: 1.132 mol C5/L ionic liquid
- Solubility (mol C5/mol Ag+) [2]: 0.670 mol C5/mol Ag+
